Results: EP0589484A1, “1,2-Ethanediol derivative and salt thereof, process for producing the same, and cerebral function-improving agent comprising the same” (TOYAMA CHEMICAL CO., LTD., priority 1989, dated 1990)
Counter-ions that a name gives are not always drawn. Like-named read-outs stand apart in the source and are kept apart here.

Columns and labels:
[1] = tested on: ddY male mice; assay: Acute toxicity; assay type: in vivo, mouse; conditions: 50 mg/kg intravenously, group of 3 ddY male mice
Excerpt: A test compound dissolved in physiological saline was intravenously administered to a group of 3 ddY male mice (5-6 weeks old) to examine the acute toxicity of the test compound.

[2] = biological target: T1, acetylcholinesterase (Mus musculus, UniProt P21836); assay: Inhibitory activity for acetylcholinesterase (method of Ellman et al.); assay type: biochemical
T1 construct: a mouse cerebral homogenate (as an acetylcholinesterase source); from tissue; host or cells: mouse cerebrum (homogenate)
Description: A test was conducted in accordance with the method of Ellman et al. [Biochem. Pharmacol., vol. 7, pp. 88-95, 1961].
That is, acetylthiocholine (as a substrate) was added to a phosphate buffer solution containing 5,5'-dithiobis-(2-nitrobenzoic acid) (DTNB), a test compound and a mouse cerebral homogenate (as an acetylcholinesterase source). The resulting mixture was incubated, and the amount of the resulting 5-thio-2-nitrobenzoic acid was photometrically measured at 412 nm.
The inhibitory activity for acetylcholinesterase of the test compound was expressed by the inhibition (%) when the final concentration of the test compound was 10 µg/ml.

[3] = tested on: ddY female mouse; assay: Effect of test compound on hypoxia (antihypoxic activity); assay type: in vivo; conditions: po, read-out: Antihypoxic activity (%)
Description: A test compound dissolved in physiological saline (100 mg/kg) was orally administered to a ddY female mouse (5-6 weeks old, each group consisting of 10 mice). After 1 (or 30 minutes*) hour from the administration, each mouse was placed in a 300-ml glass chamber, and a gas mixture consisting of 4% of oxygen and 96% of nitrogen was passed through the chamber at a rate of 5 liters/min. A time from the start of gas passing to the death of each mouse was measured.
To a control mice group was orally administered only physiological saline.
The antihypoxic activity of the test compound was calculated from the following formula: [formula]

[4] = final concentration of the test compound 10 µg/ml, mouse cerebral homogenate, read-out: Inhibition (%)
[5] = 100 mg/kg orally, placed in chamber (4% oxygen, 96% nitrogen) after 1 hour from the administration, survival time relative to control
[6] = 0.5 h, 100 mg/kg orally, placed in chamber (4% oxygen, 96% nitrogen) after 30 minutes from the administration (values marked *), survival time relative to control

T1 sequence (P21836 32-614): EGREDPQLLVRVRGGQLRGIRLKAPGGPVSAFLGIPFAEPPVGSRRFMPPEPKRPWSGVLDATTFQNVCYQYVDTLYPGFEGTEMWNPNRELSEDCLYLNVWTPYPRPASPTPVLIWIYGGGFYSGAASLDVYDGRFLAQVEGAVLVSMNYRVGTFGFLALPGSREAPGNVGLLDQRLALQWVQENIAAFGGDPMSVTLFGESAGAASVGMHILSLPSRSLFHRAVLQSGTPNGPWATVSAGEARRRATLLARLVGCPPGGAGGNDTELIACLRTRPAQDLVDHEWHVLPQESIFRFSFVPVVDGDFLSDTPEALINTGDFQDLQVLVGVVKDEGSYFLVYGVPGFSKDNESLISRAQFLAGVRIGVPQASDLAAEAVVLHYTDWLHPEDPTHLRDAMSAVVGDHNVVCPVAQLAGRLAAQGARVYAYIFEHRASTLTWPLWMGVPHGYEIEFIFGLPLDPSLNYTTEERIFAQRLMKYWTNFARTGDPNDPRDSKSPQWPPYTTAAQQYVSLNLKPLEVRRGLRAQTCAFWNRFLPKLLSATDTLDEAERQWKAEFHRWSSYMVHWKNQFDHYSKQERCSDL

Row | SMILES | Acute toxicity [1] | inhibition at 10 µg/mL [2, 4] | response vs control in vivo at 100 mg/kg [3, 5] | response vs control in vivo at 100 mg/kg [3, 6] | further results
1 | CN(C)CCOCC(O)c1ccc(Oc2ccccc2)cc1 (centres unmarked) [Compound No. 54, 2-[2-(N,N-dimethylamino)ethoxy]-1-[4-(4-phenyloxy)phenyl]ethanol hydrochloride] | no death case | 83% | 137% | – | –
2 | OC(COCCN1CCCC1)c1ccccc1 (centres unmarked) [compound 6] | no death case | 13% | – | – | –
3 | CC(OCCN(C)C)C(O)c1ccccc1 (centres unmarked) [compound 30] | no death case | 22% | – | – | –
4 | CN(C)CCOCC(O)c1ccc(Cl)c(Cl)c1 (centres unmarked) [compound 34] | no death case | 26% | 221% | – | –
5 | OC(COCCN1CCCCC1)c1ccc(Cl)c(Cl)c1 (centres unmarked) [compound 37] | – | 45% | 148% | – | –
6 | CN(C)CCOCC(O)c1ccc(F)cc1 (centres unmarked) [compound 38] | no death case | 36% | – | – | –
7 | CN(C)CCOCC(O)c1cccc([N+](=O)[O-])c1 (centres unmarked) [compound 40] | no death case | 26% | – | – | –
8 | CN(C)CCOCC(O)c1cccc(OCc2ccccc2)c1 (centres unmarked) [compound 47] | – | 38% | – | 165% | –
9 | COc1ccc(-c2ccc(C(O)COCCN(C)C)cc2)cc1 (centres unmarked) [compound 55] | – | 22% | 207% | – | –
10 | CN(C)CCOCC(O)c1cccc(Cc2ccccc2)c1 (centres unmarked) [compound 58] | – | 45% | 133% | – | –
11 | Cc1cccc(C(O)COCCC2CCN(Cc3ccccc3)CC2)c1 (centres unmarked) [compound 61] | – | 89% | – | 184% | –
12 | OC(COCCC1CCN(Cc2ccccc2)CC1)c1ccc(F)cc1 (centres unmarked) [compound 62] | – | 78% | 127% | – | –
13 | Cc1ccccc1-c1ccc(C(O)COCCN(C)C)cc1 (centres unmarked) [compound 65] | no death case | 62% | – | – | –
14 | CN(C)CCOCC(O)c1ccc(Oc2ccc(F)cc2)cc1 (centres unmarked) [compound 67] | no death case | 90% | – | 247% | –
15 | CN(C)CCOCC(O)c1ccc(Oc2ccccc2Cl)cc1 (centres unmarked) [compound 70] | no death case | 91% | – | – | –
16 | COc1ccc(Oc2ccc(C(O)COCCN(C)C)cc2)cc1 (centres unmarked) [compound 71] | no death case | 87% | 147% | – | –
17 | Cc1ccc(Oc2ccc(C(O)COCCN(C)C)cc2)cc1 (centres unmarked) [compound 83] | – | 93% | – | 177% | –
18 | CN(C)CCOCC(O)c1ccc(OCc2ccncc2)cc1 (centres unmarked) [compound 86] | – | 50% | – | 130% | –
19 | CN(C)CCOCC(O)c1ccc(CCc2ccccc2)cc1 (centres unmarked) [compound 89] | – | 44% | – | 156% | –
20 | CN(C)CCOCC(O)c1ccc(OCc2cccc(Cl)c2)cc1 (centres unmarked) [compound 97] | – | 38% | – | 138% | –

Row | SMILES | Acute toxicity [1] | inhibition at 10 µg/mL [2, 4] | response vs control in vivo at 100 mg/kg [3, 5] | response vs control in vivo at 100 mg/kg [3, 6] | further results
21 | CN(C)CCOCC(O)c1cccc(NS(=O)(=O)c2ccccc2)c1 (centres unmarked) [compound 182] | no death case | 38% | – | – | –
22 | CC(=O)OC(COCCN(C)C)c1cccc(OC(=O)Nc2cccc(Cl)c2)c1.Cl (centres unmarked) [compound 190, 1-acetoxy-1-[3-(3-chlorophenylcarbamoyloxy)phenyl]-2-[2-(N,N-dimethylamino)ethoxy]ethane hydrochloride] | no death case | – | – | – | inhibition at 10 µg/mL [2]: 76%
23 | CN(C)CCOCC(O)c1ccc(SCc2ccccc2)cc1 (centres unmarked) [compound 222, 1-(4-benzylthiophenyl)-2-[2-(N,N-dimethylamino)ethoxy]ethanol hydrochloride] | – | 83% | – | – | response vs control in vivo at 100 mg/kg ([3]; 0.5 h): 152%
24 | CN(C)CCOCC(O)c1ccc(S(=O)(=O)Cc2ccccc2)cc1 (centres unmarked) [compound 223] | – | 74% | – | 149% | –
25 | CN(C)CCOCC(O)c1ccc(-c2cccs2)cc1 (centres unmarked) [compound 224] | – | 36% | 155% | – | –
26 | CN(C)CCOCC(O)c1cccc2ccccc12 (centres unmarked) [compound 228, 2-[2-(N,N-dimethylamino)ethoxy]-1-(1-naphthyl)ethanol hydrochloride] | – | 30% | – | – | response vs control in vivo at 100 mg/kg ([3]; 1 h): 144%
27 | CN(C)CCOCC(O)c1ccc(Cl)c2ccccc12 (centres unmarked) [compound 230] | – | 25% | 177% | – | –
28 | OC(COCCN1CCCCC1)c1cccc2ccccc12 (centres unmarked) [compound 237] | – | 44% | 149% | – | –
29 | COc1ccc(C(O)COCCN(C)C)c2ccccc12 (centres unmarked) [compound 239] | – | 22% | 150% | – | –
30 | CN(C)CCOCC(O)c1cccc2ccc(Cl)cc12 (centres unmarked) [compound 246] | – | 30% | 128% | – | –
31 | CN(C)CCOCC(O)c1cccc2cccc(Cl)c12 (centres unmarked) [compound 247] | – | 26% | 124% | – | –
32 | O=C(c1ccc(F)cc1)C1CCN(CCOCC(O)c2cccc3ccccc23)CC1 (centres unmarked) [compound 260, 2-{2-[4-(p-fluorobenzoyl)piperidin-1-yl]ethoxy}-1-(1-naphthyl)ethanol hydrochloride] | – | 43% | – | – | response vs control in vivo at 100 mg/kg ([3]; 1 h): 124%
33 | OC(COCCN1CCN(Cc2ccccc2)CC1)c1cccc2ccccc12 (centres unmarked) [compound 302] | – | 38% | – | 182% | –
34 | CN(C)CCOCC(O)c1ccc2ncccc2c1 (centres unmarked) [compound 319] | no death case | 30% | – | – | –
35 | CN(C)CCCOCC(O)c1ccc2sccc2c1 (centres unmarked) [compound 336] | – | 21% | – | 224% | –
36 | OC(COCCC1CCN(Cc2ccccc2)CC1)c1ccc2sccc2c1 (centres unmarked) [compound 342] | – | 67% | – | 157% | –
37 | O=C(c1ccc(F)cc1)C1CCN(CCOCC(O)c2ccc3sccc3c2)CC1 (centres unmarked) [compound 350] | – | 42% | – | 147% | –
38 | CNc1nc(Cl)c(C(O)COCCN(C)C)cc1F (centres unmarked) [compound 377] | no death case | 23% | – | 221% | –
39 | CN(C)CCOCC(O)c1ccc([N+](=O)[O-])s1 (centres unmarked) [compound 405, 1-(5-nitro-2-thienyl)-2-[2-(N,N-dimethylamino)ethoxy]ethanol] | – | 59% | – | 137% | –
